Assay results: patent US11814367B2, “Inhibitors of glycogen synthase 1 (GYS1) and methods of use thereof” (Maze Therapeutics, Inc., priority 2021, dated 2023)
pIC50: −log10 of the molar value.

target: hGYS1 enzyme (recombinant hGYS1/GN1 protein) (Homo sapiens (Human), UniProt P13807); assay: GYS1 coupled enzyme assay (PK/LDH); assay type: biochemical; settings: hGYS1/GN1 50 nM, UDP-Glucose 0.8 mM, G6P 1 mM; geometric mean of at least 2 runs
Sequence (P13807 whole entry): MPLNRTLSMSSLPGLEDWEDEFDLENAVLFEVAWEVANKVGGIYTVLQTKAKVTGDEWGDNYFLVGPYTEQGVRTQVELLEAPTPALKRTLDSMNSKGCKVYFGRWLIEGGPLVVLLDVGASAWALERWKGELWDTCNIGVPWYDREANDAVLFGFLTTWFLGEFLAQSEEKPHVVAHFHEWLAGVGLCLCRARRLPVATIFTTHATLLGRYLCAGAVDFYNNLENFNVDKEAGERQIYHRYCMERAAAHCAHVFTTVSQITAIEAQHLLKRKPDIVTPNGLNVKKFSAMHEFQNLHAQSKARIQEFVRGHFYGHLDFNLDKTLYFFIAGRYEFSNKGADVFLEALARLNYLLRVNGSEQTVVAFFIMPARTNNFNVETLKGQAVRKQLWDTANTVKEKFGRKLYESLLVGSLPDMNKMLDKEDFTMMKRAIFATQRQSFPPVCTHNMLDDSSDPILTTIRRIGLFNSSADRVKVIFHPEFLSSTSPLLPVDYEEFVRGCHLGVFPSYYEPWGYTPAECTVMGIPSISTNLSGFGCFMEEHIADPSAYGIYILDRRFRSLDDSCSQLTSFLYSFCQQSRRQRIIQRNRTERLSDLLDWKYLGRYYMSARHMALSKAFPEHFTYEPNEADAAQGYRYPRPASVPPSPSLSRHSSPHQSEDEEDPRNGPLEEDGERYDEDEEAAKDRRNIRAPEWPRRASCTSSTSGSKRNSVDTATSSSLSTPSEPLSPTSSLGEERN
Sequence (P46976 whole entry partner): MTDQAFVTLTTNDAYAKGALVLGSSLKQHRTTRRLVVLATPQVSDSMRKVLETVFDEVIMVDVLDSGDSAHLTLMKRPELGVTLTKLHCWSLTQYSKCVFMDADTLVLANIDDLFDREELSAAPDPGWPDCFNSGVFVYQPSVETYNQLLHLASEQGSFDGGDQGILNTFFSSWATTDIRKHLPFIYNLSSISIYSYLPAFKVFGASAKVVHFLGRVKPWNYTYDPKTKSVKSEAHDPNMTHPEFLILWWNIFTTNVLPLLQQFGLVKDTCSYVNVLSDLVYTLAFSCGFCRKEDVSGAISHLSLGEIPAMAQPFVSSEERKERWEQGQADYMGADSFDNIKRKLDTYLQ

| pIC50 | Compound |
| --- | --- |
| 6.39 | CC(=O)N1C[C@@H]2CC[C@H]1C(C(=O)N1C[C@H](F)C[C@H]1C(=O)N[C@@H](c1ccccc1)c1ccc(C(C)C)cc1)C2 (stereo partly drawn) [Compound 176, (2S,4R)-1-[(1S,4R)-2-acetyl-2-azabicyclo[2.2.2]octane-6-carbonyl]-4-fluoro-N-[(S)-phenyl[4-(propan-2-yl)phenyl]methyl]pyrrolidine-2-carboxamide] |
| 6.35 | CC(=O)N1CCCC(C)(C(=O)N2C[C@H](F)C[C@H]2C(=O)N[C@@H](c2ccccc2)c2ccc(C(C)C)cc2)CC1 (stereo partly drawn) [Compound 181, (2S,4R)-1-(1-acetyl-4-methylazepane-4-carbonyl)-4-fluoro-N-[(S)-phenyl[4-(propan-2-yl)phenyl]methyl]pyrrolidine-2-carboxamide] |
| 6.13 | CC(=O)N1CCC2(CCCC2C(=O)N2C[C@H](F)C[C@H]2C(=O)N[C@@H](c2ccccc2)c2ccc(C(C)C)cc2)C1 (stereo partly drawn) [Compound 182, (2S,4R)-1-{2-acetyl-2-azaspiro[4.4]nonane-6-carbonyl}-4-fluoro-N-[(S)-phenyl[4-(propan-2-yl)phenyl]methyl]pyrrolidine-2-carboxamide] |
| 7.01 | CC(C)c1ccc([C@@H](NC(=O)[C@@H]2C[C@@H](F)CN2C(=O)C(O)CO)c2ccccc2)cc1 (stereo partly drawn) [Compound 186, (2S,4R)-1-(2,3-dihydroxypropanoyl)-4-fluoro-N-[(S)-phenyl[4-(propan-2-yl)phenyl]methyl]pyrrolidine-2-carboxamide] |
| 5.92 | CC(=O)N1[C@H](C(=O)N[C@@H](c2ccccc2)c2ccc(C(C)C)cc2)C[C@@H]2C[C@@H]21 [Compound 199, (1S,3S,5S)-2-acetyl-N-[(S)-phenyl[4-(propan-2-yl)phenyl]methyl]-2-azabicyclo[3.1.0]hexane-3-carboxamide] |
| 5.35 | CC(=O)N1[C@@H]2C[C@@H]2C[C@H]1C(=O)N[C@@H](c1ccccc1)c1ccc(C(C)C)cc1 [Compound 200, (1R,3S,5R)-2-acetyl-N-[(S)-phenyl[4-(propan-2-yl)phenyl]methyl]-2-azabicyclo[3.1.0]hexane-3-carboxamide] |
| 6.33 | CC(C)c1ccc([C@@H](NC(=O)[C@@H]2CCCN2C(=O)CO)c2ccccc2)cc1 [Compound 211, (2S)-1-(2-hydroxyacetyl)-N-[(S)-phenyl[4-(propan-2-yl)phenyl]methyl]pyrrolidine-2-carboxamide] |
| 7.02 | CC(=O)NCC(=O)N1CCC[C@H]1C(=O)N[C@@H](c1ccccc1)c1ccc(C(C)C)cc1 [Compound 212, (2S)-1-(2-acetamidoacetyl)-N-[(S)-phenyl[4-(propan-2-yl)phenyl]methyl]pyrrolidine-2-carboxamide] |
| 5.42 | CC(=O)N1[C@H](C)CC[C@H]1C(=O)N[C@@H](c1ccccc1)c1ccc(C(C)C)cc1 [Compound 215, (2S,5R)-1-acetyl-5-methyl-N-[(S)-phenyl[4-(propan-2-yl)phenyl]methyl]pyrrolidine-2-carboxamide] |
| 6.93 | CC(C)c1ccc([C@@H](NC(=O)[C@@H]2C[C@@H](F)CN2C(=O)Cc2cnoc2)c2ccccc2)cc1 [Compound 230, (2S,4R)-4-fluoro-1-[2-(1,2-oxazol-4-yl)acetyl]-N-[(S)-phenyl[4-(propan-2-yl)phenyl]methyl]pyrrolidine-2-carboxamide] |
| 6.16 | CC(C)c1ccc([C@@H](NC(=O)[C@@H]2C[C@@H](F)CN2C(=O)CN2CCNCC2)c2ccccc2)cc1 [Compound 234, (2S,4R)-4-fluoro-N-[(S)-phenyl[4-(propan-2-yl)phenyl]methyl]-1-[2-(piperazin-1-yl)acetyl]pyrrolidine-2-carboxamide] |
| 6.47 | CC(=O)N1CCN(CC(=O)N2C[C@H](F)C[C@H]2C(=O)N[C@@H](c2ccccc2)c2ccc(C(C)C)cc2)CC1 [Compound 235, (2S,4R)-1-[2-(4-acetylpiperazin-1-yl)acetyl]-4-fluoro-N-[(S)-phenyl[4-(propan-2-yl)phenyl]methyl]pyrrolidine-2-carboxamide] |
| 6.92 | CC(C)c1ccc([C@@H](NC(=O)[C@@H]2C[C@@H](F)CN2C(=O)C(C)(C)O)c2ccccc2)cc1F [Compound 327, (2S,4R)-4-fluoro-N-[(S)-[3-fluoro-4-(propan-2-yl)phenyl](phenyl)methyl]-1-(2-hydroxy-2-methylpropanoyl)pyrrolidine-2-carboxamide] |
| 6.47 | CC(C)c1ccc([C@H](NC(=O)[C@@H]2C[C@@H](F)CN2C(=O)Cc2nnn[nH]2)c2ccccc2)cc1F [Compound 329, (2S,4R)-4-fluoro-N-[(R)-[3-fluoro-4-(propan-2-yl)phenyl](phenyl)methyl]-1-[2-(1H-1,2,3,4-tetrazol-5-yl)acetyl]pyrrolidine-2-carboxamide] |
| 6.11 | CC(C)c1ccc([C@@H](NC(=O)[C@@H]2CCC3(CC3)N2C(=O)Cc2cnn[nH]2)c2ccccc2)cc1F [Compound 341, (5S)-N-[(S)-[3-fluoro-4-(propan-2-yl)phenyl](phenyl)methyl]-4-[2-(1H-1,2,3-triazol-5-yl)acetyl]-4-azaspiro[2.4]heptane-5-carboxamide] |
| 6.24 | CC(C)c1ccc([C@@H](NC(=O)[C@@H]2C[C@@H](F)CN2C(=O)Cc2[nH]nnc2N2CCN(C(=O)OC(C)(C)C)CC2)c2ccccc2)cc1F [Compound 370, tert-butyl 4-(5-{2-[(2S,4R)-4-fluoro-2-{[(S)-[3-fluoro-4-(propan-2-yl)phenyl](phenyl)methyl]carbamoyl}pyrrolidin-1-yl]-2-oxoethyl}-1H-1,2,3-triazol-4-yl)piperazine-1-carboxylate] |
| 5.66 | CC(=O)N1[C@@H](C)CC[C@H]1C(=O)N[C@@H](c1ccccc1)c1ccc(C2CC2)c(F)c1 [Compound 419, (2S,5S)-1-acetyl-N-[(S)-(4-cyclopropyl-3-fluorophenyl)(phenyl)methyl]-5-methylpyrrolidine-2-carboxamide] |
| 5.45 | CC(=O)N1[C@H](C(=O)N[C@@H](c2ccccc2)c2ccc(C3CC3)c(F)c2)C[C@@H]2C[C@@H]21 [Compound 420, (1S,3S,5S)-2-acetyl-N-[(S)-(4-cyclopropyl-3-fluorophenyl)(phenyl)methyl]-2-azabicyclo[3.1.0] hexane-3-carboxamide] |
| 6.94 | O=C(N[C@@H](c1ccccc1)c1ccc(C2CC2)c(F)c1)[C@@H]1C[C@@H](F)CN1C(=O)Cc1nnc(C2CC2)o1 [Compound 429, (2S,4R)-1-[2-(5-cyclopropyl-1,3,4-oxadiazol-2-yl)acetyl]-N-[(S)-(4-cyclopropyl-3-fluorophenyl)(phenyl)methyl]-4-fluoropyrrolidine-2-carboxamide] |
| 6.52 | O=C(N[C@@H](c1ccccc1)c1ccc(C2CC2)c(F)c1)[C@@H]1C[C@@H](F)CN1C(=O)Cc1ccon1 [Compound 438, (2S,4R)-N-[(S)-(4-cyclopropyl-3-fluorophenyl)(phenyl)methyl]-4-fluoro-1-[2-(1,2-oxazol-3-yl)acetyl]pyrrolidine-2-carboxamide] |
| 6.35 | O=C(N[C@@H](c1ccccc1)c1ccc(C2CC2)c(F)c1)[C@@H]1[C@H]2C[C@H]2CN1C(=O)Cc1cnn[nH]1 [Compound 440, (1S,2S,5R)-N-[(S)-(4-cyclopropyl-3-fluorophenyl)(phenyl)methyl]-3-[2-(1H-1,2,3-triazol-5-yl)acetyl]-3-azabicyclo[3.1.0] hexane-2-carboxamide] |
| 6.45 | NCc1nnc(CC(=O)N2C[C@H](F)C[C@H]2C(=O)N[C@@H](c2ccccc2)c2ccc(C3CC3)c(F)c2)o1 [Compound 489, (2S,4R)-1-{2-[5-(aminomethyl)-1,3,4-oxadiazol-2-yl]acetyl}-N-[(S)-(4-cyclopropyl-3-fluorophenyl)(phenyl)methyl]-4-fluoropyrrolidine-2-carboxamide] |
| 5.94 | CC(=O)N1C[C@H](F)C[C@H]1C(=O)N[C@@H](c1ccc(C(C)C)cc1)c1ccn[nH]1 [Compound 614, (2S,4R)-1-acetyl-4-fluoro-N-[(S)-[4-(propan-2-yl)phenyl](1H-pyrazol-5-yl)methyl]pyrrolidine-2-carboxamide] |
| 5.78 | CC(C)c1ccc([C@H](NC(=O)[C@@H]2C[C@@H](F)CN2C(=O)Cc2cnn[nH]2)c2cccc(F)c2)cc1F [Compound 647, (2S,4R)-4-fluoro-N-[(R)-[3-fluoro-4-(propan-2-yl)phenyl](3-fluorophenyl)methyl]-1-[2-(1H-1,2,3-triazol-5-yl)acetyl]pyrrolidine-2-carboxamide] |
| 6.32 | CC(=O)Nc1cccc([C@H](NC(=O)[C@@H]2C[C@@H](F)CN2C(=O)Cc2cn(C)nn2)c2ccc(C(C)C)cc2)c1 [Compound 649, (2S,4R)-N-[(R)-(3-acetamidophenyl) [4-(propan-2-yl)phenyl]methyl]-4-fluoro-1-[2-(1-methyl-1H-1,2,3-triazol-4-yl)acetyl]pyrrolidine-2-carboxamide] |
| 5.69 | Cc1cc(C(C)C)ccc1[C@@H](NC(=O)[C@@H]1C[C@@H](F)CN1C(=O)Cc1ncco1)c1ccccc1 [Compound 663, (2S,4R)-4-fluoro-N-[(S)-[2-methyl-4-(propan-2-yl)phenyl](phenyl)methyl]-1-[2-(1,3-oxazol-2-yl)acetyl]pyrrolidine-2-carboxamide] |
| 6.35 | C#CCCCCCC(=O)N1CCC[C@H]1C(=O)N[C@@H](c1ccccc1)c1ccc(C(C)C)cc1 [Compound 701, (2S)-1-(oct-7-ynoyl)-N-[(S)-phenyl[4-(propan-2-yl)phenyl]methyl]pyrrol-idine-2-carboxamide] |
| 5.67 | COc1ccc(C2CC2C(=O)N2C[C@H](F)C[C@H]2C(=O)N[C@@H](c2ccccc2)c2ccc(C(C)C)cc2)cc1 (stereo partly drawn) [Compound 703, (2S,4R)-4-fluoro-1-[2-(4-methoxyphenyl)cyclopro-panecarbonyl]-N-[(S)-phenyl[4-(propan-2-yl)phenyl]methyl]pyrrol-idine-2-carboxamide] |

| Compound | pIC50 |
| --- | --- |
| CC(=O)N1C2CCC1CC(C(=O)N1C[C@H](F)C[C@H]1C(=O)N[C@@H](c1ccccc1)c1ccc(C(C)C)cc1)C2 (stereo partly drawn) [Compound 175, (2S,4R)-1-{8-acetyl-8-azabicyclo[3.2.1]octane-3-carbonyl}-4-fluoro-N-[(S)-phenyl[4-(propan-2-yl)phenyl]methyl]pyrrolidine-2-carboxamide] | 6.24 |
